In one assay the test system is BCLA positive sera. Description: Epitope mapping of BCLA repeat and rBCLA (dot blot peptide assay). It counts as binding. Particulars: 59 peptides of 15 aa covering res 1089-1275; human sera 1/400. The text has this:
Epitope mapping of BCLA repeat and rBCLA. Dot blot peptide assays were custom synthetized by JPT Peptide technologies on cellulose membranes with N-Acetyl moieties on the N-terminus. Two sets of membranes were screened: 1) covering the rBCLA region (res 1089-1275) with a total of 59 peptides, each 15 aa long with an overlap of 12 and an offset of 3; 2) covering repeat 4 (res 446-493) with a total of 18 peptides, each 15 aa long with an overlap of 12 and an offset of 3. Dot blot assays were performed as described by the manufacturer. Briefly, the membranes were first activated 5 min in 100% ethanol then washed 3 times 3 min in DPBS-tween. Blocked O.N at 4° C. in DPBS-Tween 0.5% powdered milk then washed again 3*3 min in DPBS-tween. Tested sera were diluted to 1/400 in DPBS-tween 0.1% BSA and incubated for 3 h at RT with the membrane. Following a 3*3 min DPBS-tween wash, membranes were incubated with anti-IgG peroxidase coupled Ab (Sigma A0170) diluted to 1/100 000 for 2 h at RT. […] Dot intensity was integrated using ImageJ. […]. For data analysis of independent dot blots, integrated intensities from every peptide dot [I(p)] were normalised into enrichment factors Fe(p) using the baseline integrated intensity of peptide 59[I(p=59)] which never reacts with any sera. The following can be expressed with the following equation: […]
In order to increase the reactivity score over several independent positive sera blots symbolised as (+), Fe(p) enrichment scores were summed with each other and to subtract the non-specific reactivity, the same sum was performed on the same number of negative sera peptides, symbolised as (−) and subtracted. Peptide reactivity scores can be expressed though the following equation:
Rs(p)=[Σ(Fe(p))^(+)−Σ(Fe(p))^(−)]

Assay [1] concerns T. gondii-infected HFF cells. In words: FR235222 treatment and induction of BCLA (proteomics, western blot, immunofluorescence). It is filed as cell-based, Toxoplasma gondii. Here is the method:
Host cells and parasites culture. HFF primary cells (Bougdour et al., 2009), RAW264.7, L929, HCT116, A549 and HEK293 cells were cultured in Dulbecco's Modified eagle Medium (DMEM) (Thermo fischer Scientific, France) supplemented with 10% heat-inactivated fetal Bovine Serum (FBS) (Invitrogen), 10 mM (4-(2-hydroxyethyl)-1-piperazine ethanesulphonic acid) (HEPES) buffer pH 7.2, 2 mM L-glutamine and 50 μg/ml of penicillin and streptomycin (Thermo Fisher Scientific). Cells were incubated at 37° C. in 5% CO2. The following Toxoplasma strains were used in this study: type I (RH, GT1), type II (ME49), type III (CTG), atypical (COUG), Neospora caninum; RHΔku80 (Huynh and Carruthers, 2009), PruΔku80 (Fox et al., 2011), PruA7 (Saeij et al., 2007), COUGΔmyr1 (Hakimi, unpublished), PruΔku80Δbcla, PruΔku80-HF-BCLA and 76k-GFP-luc-Δbcla obtained in this study. All parasite strains were maintained in vitro by serial passage on monolayers of HFFs. T. gondii transfection. T. gondii RHΔku80, PruΔku80 and 76k-GFP-luc were electroporated with vectors in cytomix buffer (120 mM KCl, 0.15 mM CaCl2, 10 mM K2HPO4/KH2PO4, pH 7.6, 25 mM HEPES pH 7.6, 2 mM EGTA, 5 mM MgCl2) using a BTX ECM 630 machine (Harvard Apparatus). Electroporation was performed in a 2 mm cuvette at 1.100 V, 25Ω and 25 μF. Stable transgenic parasites were selected with 1 μM pyrimethamine, single-cloned in 96 well plates by limiting dilution and verified by immunofluorescence assay.
FR235222 treatment and induction. FR235222 was provided by Astellas Pharma Inc. (Osaka, Japan) and dissolved into DMSO as described by Bougdour et al., 2009 and the final concentration in culture medium was either 25 ng/mL or 50 ng/mL. The media containing FR235222 was added to infected HFF cells 16 hours after infection for 24 h to 7 days.
Immunofluorescence microscopy. Immunofluorescence assays on in vitro parasites were performed as described previously (Braun et al., 2013). In brief, T. gondii-infected HFF cells grown on coverslips or cysts purified from brains of mice were fixed in 3% formaldehyde for 20 min at room temperature, permeabilised with 0.1% (v/v) Triton X-100 for 15 min and blocked in phosphate-buffered saline (PBS) containing 3% (v/v) bovine serum albumin (BSA). For immunolabeling on histological sections of brains, the brain layers spotted on glass slides were first solvent-dewaxed using toluene for 3*10 min and absolute alcohol for 3*10 min. The slides were then treated with citrate buffer pH 6, heated at 100° C. during 1 hour, rinsed with water for 2*10 min and blocked in PBS containing 3% (v/v) bovine serum albumin (BSA). The cells or brain layers were then incubated for 1 hour with the primary antibodies indicated in the figures followed by the addition of secondary antibodies conjugated to Alexa Fluor 488 or 594 (Molecular Probes) at a 1:1,000 dilution for 1 hour. Nuclei of both host cells and parasites were stained for 10 min at room temperature with Hoechst 33258 at 2 μg/ml in PBS. Coverslips were mounted on a glass slide with Mowiol mounting medium, images were acquired with a fluorescence ZEISS ApoTome.2 microscope and images were processed by ZEN software (Zeiss).
Western Blot. Proteins were separated by SDS-PAGE and transferred to a polyvinylidene fluoride membrane (Immobilon-P; EMP Millipore) by liquid transfer, and Western blots were probed using appropriate primary antibodies followed by phosphatase-conjugated goat secondary antibodies (Promega). Signals were detected using NBT-BCIP (Amresco).

The subject of a further assay is TgHDAC3. Particulars: low doses, RH strain; cited from earlier work.
For assay [2], the target named is T1, His rBCLA (HisTag-rBCLA: C-terminal domain of BCLA, res 1089-1275, with a TEV cleavable N-terminal His-tag) (Toxoplasma gondii).
T1 construct: also called Cter-BCLA; recombinant rBCLA
T1 chain: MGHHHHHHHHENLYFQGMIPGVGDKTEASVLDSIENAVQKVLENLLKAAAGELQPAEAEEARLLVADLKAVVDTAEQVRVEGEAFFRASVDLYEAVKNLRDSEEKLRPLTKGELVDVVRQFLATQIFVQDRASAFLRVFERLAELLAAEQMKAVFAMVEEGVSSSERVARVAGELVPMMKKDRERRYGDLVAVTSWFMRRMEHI
Description: ELISA, serial dilution of purified VHH on coated His rBCLA (200 ng/well), anti-flag detection. Background: ELISA stands for enzyme-linked immunosorbent assay.

The target of assay [3] is T1, His rBCLA (HisTag-rBCLA: C-terminal …). In words: ELISA on coated His rBCLA (conclusion of Example 2).
Assay [4] shares this target. In words: ELISA, periplasmic extract on coated His rBCLA.
Assay [5] shares this target. In words: phage display selection on His rBCLA and ELISA, as retold in the description.

As for “EGEAFFRASVDLYEA (Synthetic peptide 22 of rBCLA)”, the “peptide reactivity (total reactivity score), rBCLA region array” value (“peptide reactivity” for short) in the assay on BCLA positive sera was “stronger zones of reactivity”. As for FR235222, in assay [1] (FR235222 90 nM versus DMSO 0.1%, type II (PruΔku80) strain in primary human fibroblasts), the “BCLA protein induction (quantitative proteomics LC-MS/MS)” value was “significantly induced”. In assay [1] (FR235222 versus untreated tachyzoites), the “BCLA signal intensity (western blot, ~140-kDa band)” value is on record as “significantly increased”. Also, the “BCLA signal intensity upon FR235222 (immunofluorescence, per PV)” value is reported as “rather moderate” in assay [1] (type I (GT1 and RHΔku80) and haplogroup 11 (COUG) strains); “very strong induction” in assay [1] (type II (PruΔku80, ME49, 76K-GFP-Luc) strain); “faint (if no) signal” in assay [1] (type III (CTG) strain). For the same molecule, the “in vitro tachyzoite to bradyzoite stage conversion” value with TgHDAC3 was “induces”. On to “KLRPLTKGELVDVVR (Synthetic peptide 30 of rBCLA)”, for which the “peptide reactivity” value in the assay on BCLA positive sera is given as “stronger zones of reactivity”. Regarding “QPAEAEEARLLVADL (Synthetic peptide 13 of rBCLA)”, in the assay on BCLA positive sera, the “peptide reactivity” value was “stronger zones of reactivity”.

B1: VHH ERB-1G6 (VHH)
VHH: EVQLVESGGGLVQAGGSLGLSCAASGRPGRIFTRNSMAWFRQAPGKEREFVASINWSGTSTSYADSVKGRFAISRDNDKNTVYLQMNSLKPEDTAVYYCAADSALYGSMHKTPADYEYWGQGTQVTVSS
notes: also called VH ERB-1 G6; not shown: C-terminal FLAG and His-tag from vector pMEK222
Consider B1, for which the binding result in assay [2] was “binds”.

B2: VHH ERB-1A12 (VHH)
VHH: EVQLVESGGGLVQAGGSLRLSCAASGRTFSRYFMGWFRQAPGKEREFVAGIIWSGTRTYYVDSVKGRFTISRDNDKRMVYLQMNSLKPEDTAVYYCAAYKEYYGTPAQLYAAASYDYWGQGTQVTVSS
notes: also called VH ERB-1A12; not shown: C-terminal FLAG and His-tag from vector pMEK222
Take B2: the binding result in assay [3] is “binds”.

B3: VHH ERB-1D7 (VHH)
VHH: KVQLVESGGGLVQAGGSLRLSCAASGRTFSRRGMGWFRQAPGKEREFVATIKWSGTSTDYADSVKGRFTISRDNAKNTVYLQMNNLQPEDTAVYYCAADRQLYRDGYVPLNEYEDWGQGTQVTVSS
notes: also called VH ERB-1D7; not shown: C-terminal FLAG and His-tag from vector pMEK222
Turning to B3, the binding result in assay [4] is “binds”.

B4: VHH ERB-1F1 (VHH)
VHH: EVQLVESGGGLVQAGDSLRLSCAASGRTFSRVTMGWFRQAPGKEREFVAGISWSGTRTDYPDSVKGRFTVSRDNAKKTMWLQMSSLRPEDTAVYHCAADSTLYGSAISNNREAYAYWGQGTQVTVSS
notes: also called VH ERB-1F1; not shown: C-terminal FLAG and His-tag from vector pMEK222
On to B4, for which, in assay [4], the binding result is “binds”.

B5: VHH ERB-1B11 (VHH)
VHH: EVQLVESGGGLVQAGGSLRLTCAASGRTFRRSNMAWFRQPPGKERDFVAAIKWSGSSTNYADSVKGRFTISRDNDKNTVYLQMNVLKPEDTGVYYCAQESSLYSNYLPVVSSAYDYWGQGTQVTVSS
notes: also called VH ERB-1 B11; not shown: C-terminal FLAG and His-tag from vector pMEK222
With B5, the binding result in assay [5] is given as “binds”.

B6: VHH ERB-1H4 (VHH)
VHH: EVQLVESGGGLVQAGGSLRLSCVASGRTFSRYTVGWFRQAPGKEREFVAGISWSGSRTSYADSVKGRFTISRDNDKTTGYLQMNSLKPEDTAVYYCAAITKLYENNIPRSVSDYALWGQGTQVTVSS
notes: also called VH ERB-1H4; not shown: C-terminal FLAG and His-tag from vector pMEK222
Turning to B6, the binding result in assay [4] was “binds”.

B7: VHH ERB-1F2 (VHH)
VHH: EVQLVESGGGLVQVGGSLRLSCAASGRTFRRNTIGWFRQAPGKEREFVAAISWSGTRTKYADPVKGRFTISRDNDKNTAYLQMNTLKPDDTAVYYCAADGALYGSDVSGLARVYDYWGQGTQVTVSS
notes: also called VH ERB-1F2; not shown: C-terminal FLAG and His-tag from vector pMEK222
Regarding B7, the binding result in assay [4] is listed as “binds”.

These data come from patent US20220390449A1, “NEW S[…] FOR THE LATENT FORM OF TOXOPLASMOSIS” (INSERM (INSTITUT NATIONAL DE LA SANTÉ ET DE LA RECHERCHE …, priority 2019, published 2022).
